Data reported in ChEMBL document CHEMBL1201862, “PubChem BioAssay data set” (2004).
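Tested at 5 concentrations; 48 h exposure; 96-well plates; endpoints linearly interpolated, else capped at highest concentration. Here, GI50 denotes the concentration required for 50% inhibition of growth.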 Calls of active or inactive are those of the source. Cut-off read from the data, not from the text of the source: active = GI50 up to about 1.1 µM and inactive = higher.

Experiments:
Test in all cases: NCI tumour cell line growth inhibition, 48 h
[1] = tested on: A498
[2] = tested on: A549
[3] = tested on: ACHN
[4] = tested on: CCRF-CEM
[5] = tested on: DMS-114
[6] = tested on: DMS-273
[7] = tested on: EKVX
[8] = tested on: HCT-116
[9] = tested on: HL-60
[10] = tested on: HOP-62
[11] = tested on: HOP-92
[12] = tested on: HT-29
[13] = tested on: IGROV-1
[14] = tested on: KM12
[15] = tested on: M14
[16] = tested on: M19-MEL
[17] = tested on: MOLT-4
[18] = tested on: NCI-H23
[19] = tested on: NCI-H460
[20] = tested on: NCI-H522
[21] = tested on: OVCAR-5
[22] = tested on: OVCAR-8
[23] = tested on: RXF 393
[24] = tested on: RXF 631
[25] = tested on: SF-268
[26] = tested on: SF-295
[27] = tested on: SK-MEL-28
[28] = tested on: SK-OV-3
[29] = tested on: SNB-19
[30] = tested on: SNB-78
[31] = tested on: SR
[32] = tested on: TK-10
[33] = tested on: U-251
[34] = tested on: UACC-257
[35] = tested on: UACC-62
[36] = tested on: UO-31
[37] = tested on: 786-0
[38] = tested on: CAKI-1
[39] = tested on: COLO 205
[40] = tested on: DLD-1
[41] = tested on: HCC 2998
[42] = tested on: K562
[43] = tested on: LXFL 529
[44] = tested on: Malme-3M
[45] = tested on: NCI-H226
[46] = tested on: OVCAR-3
[47] = tested on: OVCAR-4
[48] = tested on: RPMI-8226
[49] = tested on: SF-539
[50] = tested on: SK-MEL-2
[51] = tested on: SK-MEL-5
[52] = tested on: SN12C
[53] = tested on: SNB-75
[54] = tested on: SW-620
[55] = tested on: XF498
[56] = tested on: HCT-15
[57] = tested on: KM-20L2
[58] = tested on: LOX IMVI

CCC1=CC2CC(C(=O)OC)C1(N(C)C)C2=O (centres undefined)
GI50 [1]: > 100 µM (inactive)
GI50 [2]: > 100 µM (inactive)
GI50 [3]: > 100 µM (inactive)
GI50 [4]: > 100 µM (inactive)
GI50 [5]: > 100 µM (inactive)
GI50 [6]: > 100 µM (inactive)
GI50 [7]: > 100 µM (inactive)
GI50 [8]: > 100 µM (inactive)
GI50 [9]: > 100 µM (inactive)
GI50 [10]: > 100 µM (inactive)
GI50 [11]: > 100 µM (inactive)
GI50 [12]: > 100 µM (inactive)
GI50 [13]: > 100 µM (inactive)
GI50 [14]: > 100 µM (inactive)
GI50 [15]: > 100 µM (inactive)
GI50 [16]: > 100 µM (inactive)
GI50 [17]: > 100 µM (inactive)
GI50 [18]: > 100 µM (inactive)
GI50 [19]: > 100 µM (inactive)
GI50 [20]: > 100 µM (inactive)
GI50 [21]: > 100 µM (inactive)
GI50 [22]: > 100 µM (inactive)
GI50 [23]: > 100 µM (inactive)
GI50 [24]: > 100 µM (inactive)
GI50 [25]: > 100 µM (inactive)
GI50 [26]: > 100 µM (inactive)
GI50 [27]: > 100 µM (inactive)
GI50 [28]: > 100 µM (inactive)
GI50 [29]: > 100 µM (inactive)
GI50 [30]: > 100 µM (inactive)
GI50 [31]: > 100 µM (inactive)
GI50 [32]: > 100 µM (inactive)
GI50 [33]: > 100 µM (inactive)
GI50 [34]: > 100 µM (inactive)
GI50 [35]: > 100 µM (inactive)
GI50 [36]: > 100 µM (inactive)

Cc1ccc(S(=O)(=O)NC(=O)C2S(=O)(=O)OCCOS2(=O)=O)cc1
GI50 [37]: > 100 µM (inactive)
GI50 [2]: > 100 µM (inactive)
GI50 [38]: > 100 µM (inactive)
GI50 [4]: > 100 µM (inactive)
GI50 [39]: > 100 µM (inactive)
GI50 [40]: > 100 µM (inactive)
GI50 [6]: > 100 µM (inactive)
GI50 [7]: > 100 µM (inactive)
GI50 [41]: > 100 µM (inactive)
GI50 [8]: > 100 µM (inactive)
GI50 [9]: > 100 µM (inactive)
GI50 [10]: > 100 µM (inactive)
GI50 [11]: > 100 µM (inactive)
GI50 [12]: > 100 µM (inactive)
GI50 [42]: > 100 µM (inactive)
GI50 [14]: > 100 µM (inactive)
GI50 [43]: > 100 µM (inactive)
GI50 [15]: > 100 µM (inactive)
GI50 [16]: > 100 µM (inactive)
GI50 [17]: > 10 µM (inactive)
GI50 [44]: > 100 µM (inactive)
GI50 [45]: 1.24 µM (inactive)
GI50 [18]: > 100 µM (inactive)
GI50 [20]: > 100 µM (inactive)
GI50 [46]: > 100 µM (inactive)
GI50 [47]: > 100 µM (inactive)
GI50 [22]: > 100 µM (inactive)
GI50 [48]: > 100 µM (inactive)
GI50 [24]: > 100 µM (inactive)
GI50 [25]: > 100 µM (inactive)
GI50 [26]: > 100 µM (inactive)
GI50 [49]: > 100 µM (inactive)
GI50 [27]: > 100 µM (inactive)
GI50 [50]: > 100 µM (inactive)
GI50 [51]: > 100 µM (inactive)
GI50 [28]: > 100 µM (inactive)
GI50 [52]: > 100 µM (inactive)
GI50 [29]: > 100 µM (inactive)
GI50 [53]: > 100 µM (inactive)
GI50 [30]: > 100 µM (inactive)
GI50 [31]: > 100 µM (inactive)
GI50 [54]: > 100 µM (inactive)
GI50 [32]: > 100 µM (inactive)
GI50 [34]: > 100 µM (inactive)
GI50 [35]: > 100 µM (inactive)
GI50 [36]: 40.8 µM (inactive)
GI50 [55]: > 100 µM (inactive)

O=c1[nH]nc2c3n[nH]c(=O)n3c3ccccc3n12
GI50 [37]: > 100 µM (inactive)
GI50 [1]: 47.1 µM (inactive)
GI50 [2]: > 100 µM (inactive)
GI50 [3]: > 100 µM (inactive)
GI50 [38]: > 100 µM (inactive)
GI50 [4]: > 100 µM (inactive)
GI50 [39]: > 100 µM (inactive)
GI50 [40]: > 100 µM (inactive)
GI50 [5]: > 100 µM (inactive)
GI50 [6]: > 100 µM (inactive)
GI50 [7]: 93.8 µM (inactive)
GI50 [41]: > 100 µM (inactive)
GI50 [8]: > 100 µM (inactive)
GI50 [56]: > 100 µM
GI50 [10]: > 100 µM (inactive)
GI50 [11]: 63.7 µM (inactive)
GI50 [12]: > 100 µM (inactive)
GI50 [13]: > 100 µM (inactive)
GI50 [42]: > 100 µM (inactive)
GI50 [57]: > 100 µM (inactive)
GI50 [14]: > 100 µM (inactive)
GI50 [58]: > 100 µM (inactive)
GI50 [43]: > 100 µM (inactive)
GI50 [15]: > 100 µM (inactive)
GI50 [16]: > 100 µM (inactive)
GI50 [17]: > 100 µM (inactive)
GI50 [44]: > 100 µM (inactive)
GI50 [45]: 50.1 µM (inactive)
GI50 [18]: > 100 µM (inactive)
GI50 [19]: > 100 µM (inactive)
GI50 [20]: 66.1 µM (inactive)
GI50 [46]: > 100 µM (inactive)
GI50 [47]: > 100 µM (inactive)
GI50 [21]: > 100 µM (inactive)
GI50 [22]: > 100 µM (inactive)
GI50 [48]: > 100 µM (inactive)
GI50 [23]: > 100 µM (inactive)
GI50 [24]: > 100 µM (inactive)
GI50 [25]: > 100 µM (inactive)
GI50 [26]: > 100 µM (inactive)
GI50 [49]: 69.8 µM (inactive)
GI50 [27]: > 100 µM (inactive)
GI50 [50]: > 100 µM (inactive)
GI50 [51]: > 100 µM (inactive)
GI50 [28]: > 100 µM (inactive)
GI50 [52]: > 100 µM (inactive)
GI50 [29]: > 100 µM (inactive)
GI50 [53]: 57.5 µM (inactive)
GI50 [30]: > 100 µM (inactive)
GI50 [54]: > 100 µM (inactive)
GI50 [32]: > 100 µM (inactive)
GI50 [33]: > 100 µM (inactive)
GI50 [34]: > 100 µM (inactive)
GI50 [35]: > 100 µM (inactive)
GI50 [36]: 49.3 µM (inactive)
GI50 [55]: > 100 µM (inactive)
